Consider one compound from US12371752B2 (priority 2019, dated 2025).

This assay concerns Arthrobacter ureafaciens-derived neuraminidase. Briefly: Reactivity of probe with Arthrobacter ureafaciens-derived neuraminidase (time-dependent fluorescence intensity). The class given is biochemical. The settings on record: probe 1 μM, 0.01 U neuraminidase, 100 mm NaOAc, 2 mM CaCl2, pH7.4, 37° C., excitation 490 nm, emission 520 nm. The procedure:
A probe (HMRef-S-Neu5Ac) was dissolved in dimethyl sulfoxide (DMSO, fluorescence measurement grade, Dojindo Laboratories) to obtain a stock solution. The stock solution was diluted with a buffer solution (100 mm NaOAc, 2 mM CaCl2, pH7.4) such that a final concentration of the probe became 1 μM, to obtain a measurement solution.
A fluorescence spectrum of the measurement solution was obtained by Hitachi F-700, every one second (excitation wavelength 490 nm, emission wavelength 520 nm). Sixty seconds after initiation of measurement, 0.01 U of Arthrobacter ureafaciens-derived neuraminidase was added singly or in combination with an enzyme inhibitor.

Consider `CC(=O)N[C@H]1[C@H]([C@H](O)[C@H](O)CO)O[C@@](Oc2ccc(COc3ccc4c(c3)Oc3cc(NCC(F)(F)F)ccc3C43OCc4ccccc43)cc2)(C(=O)O)C[C@@H]1O` (stereo partly shown) [HMRef-S-Neu5Ac], for which the “increase of fluorescence intensity by the reaction with the bacterium-derived neuraminidase” value was 130 times.
